Patent publication US5578496A, “Detection of autoantibodies associated with the disease myasthenia gravis” (Board of Regents, Baylor College of Medicine, priority 1994, dated 1996)
Where a SMILES comes first, the peptide text is derived from it. Bridges are numbered along the chain shown (N, C = ends).

Tests used:
[1] = tested on: antibodies against human ACHR α chain peptides; assay: Binding of anti-peptide antibodies to the peptides on Co-Bind plate; design: species or system mice; details: antisera diluted 1:500 (v/v) with PBS/0.05% casein; corrected for nonspecific binding to casein
Description: Anti-peptide antibodies were raised in outbred mice by immunization in the hind footpads of 50 μg of synthetic peptide in 100 μl emulsion prepared from equal volumes of PBS and Freund's complete adjuvant. The immunizations were done on day 1, day 15, day 30 and day 45. Rabbit immune IgG fractions with specificity against human IgG and human IgM and mouse IgG and IgM were obtained from DAKO Co. (DAKO-immunoglobulins a/s, Denmark) and Accurate Chemical Scientific Corp. (Westbury, N.Y.), respectively.
1.0 mg of peptide was dissolved in 5 μl of dimethylformamide and then diluted to 50 μg/ml with 0.15M NaCl in 0.01M sodium phosphate buffer, pH 7.2, containing 0.01% thimerosal (PBS). Aliquots of the peptide solution, were applied to wells of the 96-well Co-Bind plate. The plates were incubated at room temperature overnight with continuous gentle rocking. After washing three times with PBS, the wells were quenched (3 hrs., room temperature) with 0.2 ml of 1.0M glycine-NaOH, pH 7.2. After washing the wells three times with PBS, an aliquot (100 μl) of a 0.1% solution of casein in PBS were added to each well and the plates were incubated at 37° C. for 90 min to block the remaining reactive groups on the wells. The plates were then washed three times with PBS and incubated (37° C., 4 hrs) with 100 μl of plasma or mouse antiserum (1:200 or 1:500 dilution with PBS containing 0.1% casein). For binding to peptide α182-198, the plates were blocked with, and plasma were diluted in, 0.5% (instead of 0.1%) casein in PBS. After washing four times with PBS, the plates were incubated (4° C., overnight) with 100 μl of rabbit anti-human (IgG+IgM) or anti-mouse (IgG+IgM) (2.5 μg/ml) in PBS containing 0.1% casein. The plates were washed four times with PBS and incubated (3 hrs., room temperature) with ^125 I-labeled protein A (2×10^5 cpm) in 100 μl of PBS-0.1% casein. After washing five times with PBS, bound radioactivity was removed from the wells, by the addition of 100 μl of 5% SDS in 0.2N NaOH. The plates were allowed to stand for 20 min at room temperature and the solutions were then transferred quantitatively to small test tubes for counting. This procedure was repeated three times, and the solutions in each case were added to the respective tubes. The samples were counted on a Beckman 4000 gamma counter. The radioactivity bound by three unrelated proteins (casein, cytochrome C and bovine serum albumin) and a nonsense peptide (ESSGTGIESSGTGI) (Atassi et al. 1987) were used as controls to correct for nonspecific binding. It should be noted that in other experiments, in which the plates were blocked and all dilutions were made with PBS containing human adult hemoglobin or bovine serum albumin, the non-specific binding was considerably higher than when casein was used.
To confirm that the synthetic human AChR peptides can be coupled to Co-Bind plate, they were used to raise anti-peptide antibodies in mice. The peptides were bound onto the well of Co-Bind plates, followed by reaction with the respective anti-peptide antibody, pre-diluted 1:500 (v/v) with PBS/0.05% casein.

[2] = tested on: experimental autoimmune myasthenia gravis (EAMG); assay: Electromyography (repetitive nerve stimulation) for electrophysiological EAMG after immunization with Torpedo AChR; format: in vivo, C57/BL6 mice
Description: Six weeks old C57/BL6 mice were purchased from Charles River Breeding Laboratories (Wilmington, Mass.). Preimmune sera were obtained from the mice for use as controls in subsequent antibody binding assays. […] Then, on day 0, the mice were immunized subcutaneously in one hind footpad and intramuscularly in the same side shoulder with 20 μg of Torpedo AChR in 100 μl emulsion containing equal volumes of complete Freund's adjuvant and PBS. Thirty days later, the mice were immunized with a similar dose of the receptor in the opposite footpad and shoulder. On the 37th day, test bleeds were obtained from the mice for determination of the antibody titers. Electrophysiological studies were performed on the 38th and 39th days. Finally, the mice were sacrificed on the 40th day and lymph node cells were obtained for T cell studies. To document the electrophysiological evidence of EAMG, amplitudes of serial muscle action potentials were measured by electromyography (EMG) during the repetitive stimulation of the nerve in immunized mice, using the Mystro EMG system (TECA Corporation). A pair of wire electrodes were surgically implanted, encircling the sciatic nerve, two days before EMG. The nerve was stimulated through the implanted electrodes by 3 Hz trains of supramaximal electric current with a duration of 200 microseconds. The corresponding muscle action potentials were recorded with an electrode subcutaneously inserted over the gastrocnemius muscle. A reference electrode was placed at the ankle. Ether inhalation was used during the surgical and recording procedures. […] Students' t-test was used to analyze the differences of amplitude changes between the two groups. A typical myasthenic response of a greater than 10% decrement was considered to constitute an electrophysiological evidence of EAMG. The frequency of electrophysiological EAMG was calculated in each group and analyzed by chi-square test.

peptide α125-148 = assay: Radioimmunoassay of anti-AChR antisera from pretreated mice: antibody binding to peptide α125-148; format: in vivo, C57/BL6 mice
Description: Six weeks old C57/BL6 mice were purchased from Charles River Breeding Laboratories (Wilmington, Mass.). Preimmune sera were obtained from the mice for use as controls in subsequent antibody binding assays. After 2-weeks rest, the mice were divided into three groups which received, at eleven, seven and three days before immunization with AChR, an intraperitoneal injection (5 μg in 25 μl of PBS [0.15M NaCl in 0.01M sodium phosphate buffer, pH 7.2]) of either the mPEG-(α125-148) conjugate (Group 1), mPEG-nonsense peptide conjugate (Group 2) or unaltered free peptide α125-148 (Group 3) (FIG. 5). Then, on day 0, the mice were immunized subcutaneously in one hind footpad and intramuscularly in the same side shoulder with 20 μg of Torpedo AChR in 100 μl emulsion containing equal volumes of complete Freund's adjuvant and PBS. Thirty days later, the mice were immunized with a similar dose of the receptor in the opposite footpad and shoulder. On the 37th day, test bleeds were obtained from the mice for determination of the antibody titers. Electrophysiological studies were performed on the 38th and 39th days. Finally, the mice were sacrificed on the 40th day and lymph node cells were obtained for T cell studies.
One mg of the synthetic peptide was dissolved in 50 μl dimethylformamide and then diluted with PBS to 25 μg/ml. A solution of Torpedo AChR in PBS was prepared to contain 2.5 μg/ml. Aliquots (50 μl/well) of the peptide or AChR solutions were added to a 96-well microtiter plate (Falcon Micro Test III flexible assay plate, Becton Dickinson, Oxcard, Calif.) and the plates were incubated at room temperature overnight. After washing 3 times with PBS, the plates were blocked with 0.25% bovine serum albumin (BSA [bovine serum albumin]) in PBS (50 μl/well) at 37° C. for 90 minutes. The plates were washed again 5 times with PBS and to each well was added 50 μl of the serum from AChR-immunized mice, pre-diluted with PBS containing 0.10% BSA, and the plates were covered and allowed to stand at room temperature overnight. After 5 washes with PBS, 50 μl of rabbit IgG antibodies (2.5 μg/ml) against mouse IgG and IgM (Accurate Chemical Scientific Corporation, Westbury, N.Y.) was added to each well and the plates were incubated at 37° C. for 3 hours. The plates were then washed 5 times with PBS and ^125 I-labeled protein A (2×10^5cpm in 50 μl of PBS-0.1% BSA) was added to each well. The plates were incubated for 3 hours at room temperature, after which they were washed and the wells were cut out and counted for bound radioactivity. Pre-immune serum samples, obtained from the mice prior to any experimental treatments, were used as controls to correct for non-specific binding.

[3] = 5 μg i.p. at 11, 7 and 3 days before immunization with Torpedo AChR, EMG on days 38-39

Row | Molecule | Antibody Binding to immunizing Peptide (CPM) [1] [CPM] | also measured
1 | α158-174: synthetic peptide, residues α158-174 of human AChR α-chain (INPESDQPDLSNFMESG) | 14799 | –
2 | α170-186: synthetic peptide, residues α170-186 of human AChR α-chain (FMESGEWVIKESRGWKH) | 71323 | –
3 | α56-71: synthetic peptide, residues α56-71 of human AChR α-chain (LKQQWVDYNLKWNPDD) | 36038 | –
4 | α67-82: synthetic peptide, residues α67-82 of human AChR α-chain (WNPDDYGGVKKIHIPS) | 22884 | –
5 | α89-104: synthetic peptide, residues α89-104 of human AChR α-chain (DLVLYNNADGDFAIVK) | 29199 | –
6 | α146-162: synthetic peptide, residues α146-162 of human AChR α-chain (LGTWTYDGSVVAINPES) | 13649 | –
7 | α1-16: synthetic peptide, residues α1-16 of human AChR α-chain (SEHETRLVAKLFKDYS) | 78940 | –
8 | CC[C@H](C)[C@H](NC(=O)CNC(=O)[C@H](CC(C)C)NC(=O)[C@H](CCCCN)NC(=O)[C@H](CCSC)NC(=O)[C@@H](NC(=O)[C@@H]1CSSC[C@H](NC(=O)[C@H](Cc2ccc(O)cc2)NC(=O)[C@H](CO)NC(=O)[C@@H](N)CCCCN)C(=O)N[C@@H](CCC(=O)O)C(=O)N[C@@H]([C@@H](C)CC)C(=O)N[C@@H]([C@@H](C)CC)C(=O)N[C@@H](C(C)C)C(=O)N[C@@H]([C@@H](C)O)C(=O)N[C@@H](Cc2c[nH]cn2)C(=O)N[C@@H](Cc2ccccc2)C(=O)N2CCC[C@H]2C(=O)N[C@@H](Cc2ccccc2)C(=O)N[C@@H](CC(=O)O)C(=O)N[C@@H](CCC(N)=O)C(=O)N[C@@H](CCC(N)=O)C(=O)N[C@@H](CC(N)=O)C(=O)N1)[C@@H](C)O)C(=O)O [α125-148] (H-KSYCEIIVTHFPFDQQNCTMKLGI-OH; disulfide 4-18) | – | mean amplitude change of muscle action potentials [2, 3]: -15.9%; mice showing a decremental response greater than 10% [2, 3]: 56%; antibody binding to peptide α125-148, mean net cpm ± standard deviation (peptide α125-148; anti-AChR antisera of individual mice, day 37 bleeds): 3626+2214 cpm; antibody binding to peptide α125-148, pooled antisera in serial dilutions (peptide α125-148; pooled serum of each group, various dilutions): consistently greater than the other two controls; antibodies bound to peptide α125-148 in anti-AChR antisera (peptide α125-148; pretreatment prior to immunization with Torpedo AChR): no decrease
9 | CC[N+](C)(C)c1cccc(O)c1 [edrophonium chloride, reference compound] | – | decremental amplitude after edrophonium ([2]; EAMG-positive mouse with -33% decrement, 3 minutes after i.p. injection of 250 μg): -13%; reversibility of typical myasthenic decremental response ([2]; i.p. injection of 250 μg): reversible
10 | α100-115: synthetic peptide, residues α100-115 of human AChR α-chain (FAIVKFTKVLLQYTGH) | 57717 | –
11 | α34-49: synthetic peptide, residues α34-49 of human AChR α-chain (GLQLIQLINVDEVNQI) | 62360 | –
12 | α78-93: synthetic peptide, residues α78-93 of human AChR α-chain (IHIPSEKIWRPDLVLY) | 4433 | –
13 | α194-210: synthetic peptide, residues α194-210 of human AChR α-chain (PDTPYLDITYHFVMQRL) | 66804 | –
14 | α23-38: synthetic peptide, residues α23-38 of human AChR α-chain (EDHRQVVEVTVGLQLI) | 71893 | –
15 | α134-150: synthetic peptide, residues α134-150 of human AChR α-chain (HFPFDEQNGSMKLGTWT) | 52077 | –
16 | α45-60: synthetic peptide, residues α45-60 of human AChR α-chain (EVNQIVTTNVRLKQQW) | 82404 | –
